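Five compound concentrations were applied to cells in 96-well plates for 48 hours; endpoints were derived by simple linear interpolation of the resulting dose-response curve. At the GI50, growth is halved. At the TGI there is no net growth.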
How the values were obtained:
Test in all cases: inhibition of tumour cell growth, NCI panel, 48 h
[1] = test system: OVCAR-4 ovarian
[2] = test system: KM12 colon
[3] = test system: CCRF-CEM leukemia
[4] = test system: OVCAR-5 ovarian
[5] = test system: SK-MEL-2 melanoma
[6] = test system: K-562 leukemia
[7] = test system: HT29 colon
[8] = test system: OVCAR-8 ovarian
[9] = test system: MOLT-4 leukemia
[10] = test system: MALME-3M melanoma

Structure (SMILES)	TGI [1] [µM]	TGI [2] [µM]	TGI [3] [µM]	TGI [4] [µM]	TGI [5] [µM]	TGI [6] [µM]	TGI [7] [µM]	TGI [8] [µM]	TGI [9] [µM]	TGI [10] [µM]	GI50 [2] [µM]	GI50 [3] [µM]	GI50 [5] [µM]	GI50 [7] [µM]	GI50 [9] [µM]	GI50 [1] [µM]	GI50 [10] [µM]	GI50 [4] [µM]	GI50 [8] [µM]
COc1cc(/C=C2/Oc3c(OC)cccc3C2=O)ccc1O	> 100	> 100	> 100	> 100	> 100	> 100	> 100	> 100	> 100	–	–	–	–	–	–	–	–	–	–
CCOC(=O)c1csc(NC(=O)C(C)N2CCOCC2)n1 (centres undefined)	> 100	> 100	> 100	> 100	> 100	> 100	> 100	> 100	> 100	> 100	–	–	–	–	–	–	–	–	–
CCN(CC)CCNc1ccc([N+](=O)[O-])c2sc3cc(Cl)ccc3c(=O)c12	–	53.6	> 100	–	> 100	–	> 100	–	> 100	–	6.77	3.17	21.8	1.7	2.34	–	–	–	–
CC(C)=CCC/C(C)=C/C=C/C(C)=C/C1C[C@@]2(C(O)O1)[C@H](CCCO)/C(=C(/C)C=O)CC[C@]2(C)O (some centres undefined)	–	–	–	55.6	34.6	28.4	33.3	51	30.8	22.6	–	–	–	–	–	–	–	–	–
C[n+]1c(-c2ccc(/C=N/NC(=O)C(=O)N/N=C/c3ccc(-c4cn5ccccc5[n+]4C)cc3)cc2)cn2ccccc21	> 100	> 100	> 100	> 100	> 100	> 100	> 100	> 100	> 100	> 100	–	–	–	–	–	–	–	–	–
c1cncc([O][Ge]([O]c2cccnc2)([O]c2cccnc2)[O]c2cccnc2)c1	> 100	> 100	–	> 100	> 100	–	> 100	> 100	–	> 100	> 100	–	> 100	> 100	–	> 100	> 100	> 100	> 100
C/C(=N\NC(=S)N1CCOCC1)c1nc2ncccc2[nH]1	> 100	> 100	> 100	> 100	69.4	> 100	> 100	80.2	> 100	> 100	–	–	–	–	–	–	–	–	–
Cc1cc(Nc2ccc(Cl)cc2)nc(NCCCNc2ccnc3cc(Cl)ccc23)n1	–	–	–	3.09	3.57	–	–	–	–	–	–	–	1.86	–	–	–	–	1.66	–
O=C(O)/C=C/c1ccncc1	> 100	> 100	> 100	> 100	> 100	> 100	> 100	> 100	> 100	> 100	–	–	–	–	–	–	–	–	–
